# The supplement of paper PMC10307832
# Legend:
# Experiment in all cases: relative viability (nuclei count vs DMSO), 5 days (fraction); higher = more cells survive
# NCI-H2347 = test system: NCI-H2347
# How it was run: (§1)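 Five library-drug doses in √10 steps were combined with a fixed anchor-drug dose, or a single drug was given alone, by pin tool to lung cancer cell lines in 1536-well plates the day after seeding. Nuclei were stained and counted after 5 days. Relative viability is the nuclei count in treated wells over that in vehicle wells, taken as the median of duplicate plates.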
# RERF-LC-KJ = test system: RERF-LC-KJ
# How it was run: as §1
# PC-14 = test system: PC-14
# How it was run: as §1
# NCI-H2087 = test system: NCI-H2087
# How it was run: as §1
# 201T = test system: 201T
# How it was run: as §1
# NCI-H2126 = test system: NCI-H2126
# How it was run: as §1
# COR-L 105 = test system: COR-L 105
# How it was run: as §1
# NCI-H1666 = test system: NCI-H1666
# How it was run: as §1
# NCI-H2405 = test system: NCI-H2405
# How it was run: as §1
# NCI-H1915 = test system: NCI-H1915
# How it was run: as §1
# NCI-H647 = test system: NCI-H647
# How it was run: as §1
# H3255 = test system: H3255
# How it was run: as §1
# NCI-H650 = test system: NCI-H650
# How it was run: as §1
# NCI-H23 = test system: NCI-H23
# How it was run: as §1
# NCI-H661 = test system: NCI-H661
# How it was run: as §1
# HCC-78 = test system: HCC-78
# How it was run: as §1
# EPLC-272H = test system: EPLC-272H
# How it was run: as §1
# HCC-827 = test system: HCC-827
# How it was run: as §1
# LCLC-97TM1 = test system: LCLC-97TM1
# How it was run: as §1
# NCI-H520 = test system: NCI-H520
# How it was run: as §1
# LC-2-ad = test system: LC-2-ad
# How it was run: as §1
smiles,measurement,setting,value
O=c1cc(-c2cccc3c2Sc2ccccc2S3)oc(N2CCOCC2)c1 + Cc1nc(NC(=O)N2CCC[C@H]2C(N)=O)sc1-c1ccnc(C(C)(C)C(F)(F)F)c1 [Alpelisib] (partner 2 µM),relative viability,NCI-H2347; first compound 0.08 µM,1.03
same,relative viability,NCI-H2347; first compound 0.253 µM,1.14
same,relative viability,NCI-H2347; first compound 0.8 µM,1.1
same,relative viability,NCI-H2347; first compound 2.53 µM,1.11
same,relative viability,NCI-H2347; first compound 8 µM,1.16
same,relative viability,RERF-LC-KJ; first compound 0.08 µM,0.83
same,relative viability,RERF-LC-KJ; first compound 0.253 µM,0.917
same,relative viability,RERF-LC-KJ; first compound 0.8 µM,0.824
same,relative viability,RERF-LC-KJ; first compound 2.53 µM,0.741
same,relative viability,RERF-LC-KJ; first compound 8 µM,0.939
same,relative viability,PC-14; first compound 0.08 µM,0.936
same,relative viability,PC-14; first compound 0.253 µM,1.17
same,relative viability,PC-14; first compound 0.8 µM,1.11
same,relative viability,PC-14; first compound 2.53 µM,0.821
same,relative viability,PC-14; first compound 8 µM,1.05
same,relative viability,NCI-H2087; first compound 0.08 µM,1.22
same,relative viability,NCI-H2087; first compound 0.253 µM,1.19
same,relative viability,NCI-H2087; first compound 0.8 µM,1.09
same,relative viability,NCI-H2087; first compound 2.53 µM,1.12
same,relative viability,NCI-H2087; first compound 8 µM,1.03
same,relative viability,201T; first compound 0.08 µM,0.98
same,relative viability,201T; first compound 0.253 µM,1.04
same,relative viability,201T; first compound 0.8 µM,1.02
same,relative viability,201T; first compound 2.53 µM,0.953
same,relative viability,201T; first compound 8 µM,0.913
same,relative viability,NCI-H2126; first compound 0.08 µM,0.827
same,relative viability,NCI-H2126; first compound 0.253 µM,0.822
same,relative viability,NCI-H2126; first compound 0.8 µM,0.734
same,relative viability,NCI-H2126; first compound 2.53 µM,0.739
same,relative viability,NCI-H2126; first compound 8 µM,0.735
same,relative viability,COR-L 105; first compound 0.08 µM,1.1
same,relative viability,COR-L 105; first compound 0.253 µM,1.13
same,relative viability,COR-L 105; first compound 0.8 µM,0.862
same,relative viability,COR-L 105; first compound 2.53 µM,0.902
same,relative viability,COR-L 105; first compound 8 µM,1.12
same,relative viability,NCI-H1666; first compound 0.08 µM,0.789
same,relative viability,NCI-H1666; first compound 0.253 µM,1.13
same,relative viability,NCI-H1666; first compound 0.8 µM,0.82
same,relative viability,NCI-H1666; first compound 2.53 µM,0.854
same,relative viability,NCI-H1666; first compound 8 µM,0.681
same,relative viability,NCI-H2405; first compound 0.08 µM,0.749
same,relative viability,NCI-H2405; first compound 0.253 µM,0.777
same,relative viability,NCI-H2405; first compound 0.8 µM,0.792
same,relative viability,NCI-H2405; first compound 2.53 µM,0.73
same,relative viability,NCI-H2405; first compound 8 µM,0.614
same,relative viability,NCI-H1915; first compound 0.08 µM,1.15
same,relative viability,NCI-H1915; first compound 0.253 µM,1.12
same,relative viability,NCI-H1915; first compound 0.8 µM,1.07
same,relative viability,NCI-H1915; first compound 2.53 µM,0.994
same,relative viability,NCI-H1915; first compound 8 µM,1.11
same,relative viability,NCI-H647; first compound 0.08 µM,1.4
same,relative viability,NCI-H647; first compound 0.253 µM,1.47
same,relative viability,NCI-H647; first compound 0.8 µM,1.31
same,relative viability,NCI-H647; first compound 2.53 µM,0.869
same,relative viability,NCI-H647; first compound 8 µM,0.977
same,relative viability,H3255; first compound 0.08 µM,0.631
same,relative viability,H3255; first compound 0.253 µM,0.755
same,relative viability,H3255; first compound 0.8 µM,0.637
same,relative viability,H3255; first compound 2.53 µM,0.653
same,relative viability,H3255; first compound 8 µM,0.797
same,relative viability,NCI-H650; first compound 0.08 µM,1.1
same,relative viability,NCI-H650; first compound 0.253 µM,1.17
same,relative viability,NCI-H650; first compound 0.8 µM,1.11
same,relative viability,NCI-H650; first compound 2.53 µM,1.07
same,relative viability,NCI-H650; first compound 8 µM,1.08
same,relative viability,NCI-H23; first compound 0.08 µM,0.562
same,relative viability,NCI-H23; first compound 0.253 µM,0.801
same,relative viability,NCI-H23; first compound 0.8 µM,0.752
same,relative viability,NCI-H23; first compound 2.53 µM,0.603
same,relative viability,NCI-H23; first compound 8 µM,0.72
same,relative viability,NCI-H661; first compound 0.08 µM,0.541
same,relative viability,NCI-H661; first compound 0.253 µM,0.753
same,relative viability,NCI-H661; first compound 0.8 µM,0.594
same,relative viability,NCI-H661; first compound 2.53 µM,0.512
same,relative viability,NCI-H661; first compound 8 µM,0.98
same,relative viability,HCC-78; first compound 0.08 µM,0.355
same,relative viability,HCC-78; first compound 0.253 µM,0.319
same,relative viability,HCC-78; first compound 0.8 µM,0.305
same,relative viability,HCC-78; first compound 2.53 µM,0.307
same,relative viability,HCC-78; first compound 8 µM,0.339
same,relative viability,EPLC-272H; first compound 0.08 µM,0.966
same,relative viability,EPLC-272H; first compound 0.253 µM,1.11
same,relative viability,EPLC-272H; first compound 0.8 µM,0.987
same,relative viability,EPLC-272H; first compound 2.53 µM,0.86
same,relative viability,EPLC-272H; first compound 8 µM,0.929
same,relative viability,HCC-827; first compound 0.08 µM,0.957
same,relative viability,HCC-827; first compound 0.253 µM,1.02
same,relative viability,HCC-827; first compound 0.8 µM,1.01
same,relative viability,HCC-827; first compound 2.53 µM,0.826
same,relative viability,HCC-827; first compound 8 µM,0.979
same,relative viability,LCLC-97TM1; first compound 0.08 µM,0.238
same,relative viability,LCLC-97TM1; first compound 0.253 µM,0.27
same,relative viability,LCLC-97TM1; first compound 0.8 µM,0.323
same,relative viability,LCLC-97TM1; first compound 2.53 µM,0.205
same,relative viability,LCLC-97TM1; first compound 8 µM,0.218
same,relative viability,NCI-H520; first compound 0.08 µM,0.874
same,relative viability,NCI-H520; first compound 0.253 µM,0.979
same,relative viability,NCI-H520; first compound 0.8 µM,1.09
same,relative viability,NCI-H520; first compound 2.53 µM,1.03
same,relative viability,NCI-H520; first compound 8 µM,0.971
same,relative viability,LC-2-ad; first compound 0.08 µM,0.884
same,relative viability,LC-2-ad; first compound 0.253 µM,0.908
same,relative viability,LC-2-ad; first compound 0.8 µM,0.844
same,relative viability,LC-2-ad; first compound 2.53 µM,0.806
same,relative viability,LC-2-ad; first compound 8 µM,0.75
